Literature values as cited in patent US20080175925A1, “Method and composition for the treatment of herpes virus” (priority 2007, published 2008).

Key:
HSV-1 [1] = settings: guinea pig model
HSV-1 [2] = settings: in vitro
[3] = test system: Herpesvirus hominis genital strain MVC 70 (herpesvirus h simplex 0-2); settings: solution of 0.02% w/v
[4] = test system: Herpesvirus hominis oral stain SUE (herpesvirus h simplex-1); settings: solution of 0.02% w/v

Nc1nc2c(ncn2COCCO)c(=O)[nH]1 [Acyclovir]
viral titers (HSV-1 [1]): reduced viral titers | lesion development, duration and severity scores (HSV-1 [1]; compared to vehicle control or acyclovir): did not reduce lesion development, duration or severity

NC(CCC(=O)NC(CS)C(=O)NCC(=O)O)C(=O)O (stereo not drawn) [GSH, 2-amino-5-{[2-[(carboxymethyl)amino]-1-(mercaptomethyl)-2-oxoethyl]amino}-5-oxopentanoic acid]
inhibition of replication of HSV-1 (HSV-1 [2]; addition of exogenous GSH): > 99% | intracellular GSH levels after virus challenge (HSV-1 [2]; addition of exogenous GSH to infected cells): restore its intracellular levels almost up to those found in uninfected cells

[H]/N=C(\N/C(=N/[H])NCCCCCCNC(=N)NC(=N)Nc1ccc(Cl)cc1)Nc1ccc(Cl)cc1 [chlorhexidine]
infectivity of HVH strain MVC 70 (HSV-2) [3]: reduced the infectivity | infectivity of HVH strain SUE (HSV-1) [4]: reduced the infectivity
